This is an account of results in patent US9796711B2, “Substituted pyrazolo[3,4-b]pyridin-6-carboxylic acids and method of use” (AbbVie S.àr.l., priority 2015, dated 2017).

As usually defined, the EC50 is the concentration that produces a half-maximal response.

In assay [1] the target is T1, ΔF508-CFTR (Homo sapiens, UniProt P13569, DEL508-508).
T1 construct: host or cells: CFBE41o-, doxycycline-inducible
Description: CFTR cell surface levels using HRP-tagged ΔF508-CFTR expressing CFBE cells, intrinsic corrector capacity. In kind it is cell-based. As to conditions: for EC50: read-out: EC50. The method, boiled down:
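Here the cells express ΔF508-CFTR with horseradish peroxidase inserted in extracellular loop 4, so only rescued channel at the surface gives luminescent signal. Compounds act on their own, 20 h at the reduced temperature of 33 °C; values are percent activity relative to DMSO and a 3 μM corrector.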

The target in assay [2] is T1, ΔF508-CFTR. Description: CFTR cell surface levels using HRP-tagged ΔF508-CFTR expressing CFBE cells, in the presence of a co-corrector. As to conditions: HRP-tagged ΔF508-CFTR expressing CFBE cells, in the presence of 3 μM co-corrector; for EC50: read-out: EC50. In kind it is cell-based. The method, boiled down:
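Cells were seeded with 0.5 μg/mL doxycycline and held 68 h at 37 °C. Test compounds plus 3 μM co-corrector (final 0.1% DMSO) were then added for 20 h at 33 °C. Washed cells received HRP substrate, and luminescence was normalized between DMSO and 3 μM co-corrector controls.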

Where [3] appears, read: HRP-tagged ΔF508-CFTR expressing CFBE cells, intrinsic corrector capacity (no co-corrector), 33° C., 20 hours.
The mark [4] stands for this setting: HRP-tagged ΔF508-CFTR CFBE41o- cells, compounds alone (intrinsic corrector capacity), 20 hours at 33° C., positive control 3 μM corrector.
Where [5] appears, read: HRP-tagged ΔF508-CFTR CFBE41o- cells, compounds alone (intrinsic corrector capacity), 20 hours at 33° C.

T1 sequence (P13569 with tags, fused parts or gaps DEL508-508): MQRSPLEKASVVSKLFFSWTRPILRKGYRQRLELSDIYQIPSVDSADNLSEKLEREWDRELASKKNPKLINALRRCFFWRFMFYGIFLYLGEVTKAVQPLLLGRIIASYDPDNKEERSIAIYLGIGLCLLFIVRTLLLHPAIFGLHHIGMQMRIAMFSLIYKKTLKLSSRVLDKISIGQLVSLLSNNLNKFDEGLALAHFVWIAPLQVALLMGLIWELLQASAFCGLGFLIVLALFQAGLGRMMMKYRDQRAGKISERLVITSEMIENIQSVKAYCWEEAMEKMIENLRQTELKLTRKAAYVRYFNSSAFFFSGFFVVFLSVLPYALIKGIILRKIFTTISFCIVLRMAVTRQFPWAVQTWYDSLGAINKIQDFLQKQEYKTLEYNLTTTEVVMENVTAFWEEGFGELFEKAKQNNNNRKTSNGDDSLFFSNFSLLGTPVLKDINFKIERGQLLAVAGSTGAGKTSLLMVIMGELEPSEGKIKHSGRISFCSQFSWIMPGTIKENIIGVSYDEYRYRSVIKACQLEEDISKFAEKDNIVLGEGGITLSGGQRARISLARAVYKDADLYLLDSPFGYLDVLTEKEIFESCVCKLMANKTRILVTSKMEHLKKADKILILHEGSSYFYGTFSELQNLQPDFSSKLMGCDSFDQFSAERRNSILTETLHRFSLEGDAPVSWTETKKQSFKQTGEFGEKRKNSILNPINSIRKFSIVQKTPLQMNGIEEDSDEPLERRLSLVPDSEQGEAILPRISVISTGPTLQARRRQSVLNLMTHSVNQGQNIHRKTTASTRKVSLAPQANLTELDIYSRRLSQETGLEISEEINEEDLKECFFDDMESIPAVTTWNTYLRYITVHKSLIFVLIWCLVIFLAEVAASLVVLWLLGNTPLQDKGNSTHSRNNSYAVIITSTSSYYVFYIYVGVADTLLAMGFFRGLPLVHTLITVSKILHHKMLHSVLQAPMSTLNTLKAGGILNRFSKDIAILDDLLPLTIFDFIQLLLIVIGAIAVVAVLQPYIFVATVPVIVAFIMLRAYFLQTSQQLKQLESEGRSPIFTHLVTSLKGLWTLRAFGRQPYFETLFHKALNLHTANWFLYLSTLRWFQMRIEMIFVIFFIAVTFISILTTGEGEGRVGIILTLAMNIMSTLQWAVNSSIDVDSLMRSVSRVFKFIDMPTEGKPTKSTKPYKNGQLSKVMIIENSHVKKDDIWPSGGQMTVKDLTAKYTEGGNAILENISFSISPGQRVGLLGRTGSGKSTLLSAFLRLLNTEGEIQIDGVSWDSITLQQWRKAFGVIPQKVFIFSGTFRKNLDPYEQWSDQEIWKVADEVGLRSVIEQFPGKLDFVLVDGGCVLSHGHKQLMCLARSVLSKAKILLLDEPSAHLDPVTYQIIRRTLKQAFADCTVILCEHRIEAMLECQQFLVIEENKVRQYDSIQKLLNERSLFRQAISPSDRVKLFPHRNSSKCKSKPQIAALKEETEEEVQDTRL

Take `CC(C)c1nn(-c2ccc(F)cc2)c2nc(C(=O)O)cc(N3CCC4(CCO4)CC3)c12` [compound 398, 1-(4-fluorophenyl)-4-(1-oxa-7-azaspiro[3.5]nonan-7-yl)-3-(propan-2-yl)-1H-pyrazolo[3,4-b]pyridine-6-carboxylic acid]: the “% Activation” value came out at 96.49% in assay [1] (setting [3]) and 275.7% in assay [2]. Further, the figures for the EC50 in assay [1] (setting [3]) and in assay [2] were 1290 nM and 737 nM, respectively.
Consider `CC(C)c1nn(C2CCN(CC#N)C2)c2nc(C(=O)O)cc(-c3ccc(N4CCOCC4)cc3)c12` (stereo not shown) [compound 141, 1-[1-(cyanomethyl)pyrrolidin-3-yl]-4-[4-(morpholin-4-yl)phenyl]-3-(propan-2-yl)-1H-pyrazolo[3,4-b]pyridine-6-carboxylic acid], for which the “% Activation” value came to 5.399% in assay [1] (setting [4]) and 121.5% in assay [2]. Also, the EC50 in assay [1] (setting [5]) and in assay [2] was over 10000 nM in each case.
Regarding `Cc1nn(C2CCCCC2)c2nc(C(=O)O)cc(-c3cnc(N4CCOCC4)nc3)c12` [compound 65, 1-cyclohexyl-3-methyl-4-[2-(morpholin-4-yl)pyrimidin-5-yl]-1H-pyrazolo[3,4-b]pyridine-6-carboxylic acid], the “% Activation” value amounted to 103.02% in assay [1] (setting [4]) and 258.2% in assay [2]. In addition, the EC50 in assay [1] (setting [5]) came to 3340 nM; in assay [2], 2310 nM.
Take `O=C(O)c1cc(N2CCC(C(F)CO)CC2)c2c(C3CCC3)nn(-c3ccccc3)c2n1` (stereo not shown) [compound 520, 3-cyclobutyl-4-[4-(1-fluoro-2-hydroxyethyl)piperidin-1-yl]-1-phenyl-1H-pyrazolo[3,4-b]pyridine-6-carboxylic acid]: in assay [1] (setting [3]), the “% Activation” value was 213.9% and the EC50 was determined as 583 nM. In assay [2], the “% Activation” value is reported as 450.25% and the half-maximal effective concentration (EC50) stood at 241 nM.
In the case of `CC(C)c1nn(-c2ccc(F)cc2)c2nc(C(=O)O)cc(N3CCN(C4CCN(C)CC4)CC3)c12` [compound 801, 1-(4-fluorophenyl)-4-[4-(1-methylpiperidin-4-yl)piperazin-1-yl]-3-(propan-2-yl)-1H-pyrazolo[3,4-b]pyridine-6-carboxylic acid], the results for the “% Activation” value in assay [1] (setting [3]) and in assay [2] were 67.99% and 253.1%, respectively. The EC50 in assay [1] (setting [3]) and in assay [2] was 1670 nM each time.
Regarding `CC(C)Oc1cc(-n2nc(C3CCC3)c3c(N4CCC(N5CCOCC5)CC4)cc(C(=O)O)nc32)ccn1` [compound 855, 3-cyclobutyl-4-[4-(morpholin-4-yl)piperidin-1-yl]-1-{2-[(propan-2-yl)oxy]pyridin-4-yl}-1H-pyrazolo[3,4-b]pyridine-6-carboxylic acid], in assay [1] (setting [3]), the “% Activation” value came out at 304.2% and the EC50 was 197 nM. In addition, in assay [2], the “% Activation” value is reported as 490.9% and the EC50 was determined as 87.2 nM.
Turning to `CN(C)C[C@H](F)C1CCN(c2cc(C(=O)O)nc3c2c(C2CCC2)nn3-c2ccccc2)CC1` [compound 455, 3-cyclobutyl-4-{4-[(1R)-2-(dimethylamino)-1-fluoroethyl]piperidin-1-yl}-1-phenyl-1H-pyrazolo[3,4-b]pyridine-6-carboxylic acid], in assay [1] (setting [3]), the “% Activation” value was 288.4% and the EC50 is 1110 nM. Also, in assay [2], the “% Activation” value is 421.5% and the EC50 was 452 nM.
Consider `CC(C)c1nn(-c2cccc(N(C)C)c2)c2nc(C(=O)O)cc(-c3cnc(N(C)C4CCOCC4)nc3)c12` [compound 200, 1-[3-(dimethylamino)phenyl]-4-{2-[methyl(oxan-4-yl)amino]pyrimidin-5-yl}-3-(propan-2-yl)-1H-pyrazolo[3,4-b]pyridine-6-carboxylic acid], for which the “% Activation” value stood at 330.83% in assay [1] (setting [4]) and 594.2% in assay [2]. Further, the EC50 came out at 438 nM in assay [1] (setting [5]) and 514 nM in assay [2].
Take `CC(C)c1nn(-c2ccc(F)cc2)c2nc(C(=O)O)cc(N3CCN(CCC(=O)N4CCCN(C)CC4)CC3)c12` [compound 779, 1-(4-fluorophenyl)-4-{4-[3-(4-methyl-1,4-diazepan-1-yl)-3-oxopropyl]piperazin-1-yl}-3-(propan-2-yl)-1H-pyrazolo[3,4-b]pyridine-6-carboxylic acid]: in assay [1] (setting [3]), the “% Activation” value is listed as 6.923% and the EC50 worked out at 5000 nM. In assay [2], the “% Activation” value is on record as 121.2% and the EC50 came to 5000 nM.
As to `Cc1nn(-c2ccccc2)c2nc(C(=O)O)cc(OCC(F)C3CCOCC3)c12` (stereo not shown) [compound 377, 4-[2-fluoro-2-(oxan-4-yl)ethoxy]-3-methyl-1-phenyl-1H-pyrazolo[3,4-b]pyridine-6-carboxylic acid], the “% Activation” value in assay [1] (setting [4]) was 95.185%; in assay [2] it was 295.65%. Also, the EC50 in assay [1] (setting [5]) was 1670 nM; in assay [2], 1500 nM.
In the case of `O=C(O)c1cc(N2CCC3C(CCN3C3CCC3)C2)c2c(C3CCC3)nn(-c3ccc(F)cc3)c2n1` (stereo not shown) [compound 901, 3-cyclobutyl-4-(1-cyclobutyloctahydro-5H-pyrrolo[3,2-c]pyridin-5-yl)-1-(4-fluorophenyl)-1H-pyrazolo[3,4-b]pyridine-6-carboxylic acid], in assay [1] (setting [3]), the “% Activation” value turned out to be 199.2% and the EC50 is 87.6 nM. Also, in assay [2], the “% Activation” value was 432.3% and the EC50 amounted to 151 nM.
For `O=C(O)c1cc(N2CCC(O)(CCO)CC2)c2c(C3CCC3)nn(-c3ccccc3)c2n1` [compound 546, 3-cyclobutyl-4-[4-hydroxy-4-(2-hydroxyethyl)piperidin-1-yl]-1-phenyl-1H-pyrazolo[3,4-b]pyridine-6-carboxylic acid] the same measures were 87.52%, 3330 nM, 246.6% and 3330 nM.
For `O=C(O)c1cc(OC2CN(C3CCCCC3)C2)c2c(C3CCC3)nn(-c3ccccc3)c2n1` [compound 599, 3-cyclobutyl-4-[(1-cyclohexylazetidin-3-yl)oxy]-1-phenyl-1H-pyrazolo[3,4-b]pyridine-6-carboxylic acid] the same measures were 81.59%, 357 nM, 248.4% and 376 nM.
For `O=C(O)c1cc(OCCOC2COC2)c2c(C3CCC3)nn(-c3ccccc3)c2n1` [compound 483, 3-cyclobutyl-4-{2-[(oxetan-3-yl)oxy]ethoxy}-1-phenyl-1H-pyrazolo[3,4-b]pyridine-6-carboxylic acid] the same measures were 142.4%, 897 nM, 267% and 367 nM.
Take `CN(C[C@@H]1CCN(c2cc(C(=O)O)nc3c2c(C2CCC2)nn3-c2ccccc2)C1)C(=O)OC(C)(C)C` [compound 674, 4-[(3R)-3-{[(tert-butoxycarbonyl)(methyl)amino]methyl}pyrrolidin-1-yl]-3-cyclobutyl-1-phenyl-1H-pyrazolo[3,4-b]pyridine-6-carboxylic acid]: in assay [1] (setting [3]), the “% Activation” value came to 158.5% and the EC50 worked out at 521 nM. In addition, in assay [2], the “% Activation” value was 323.85% and the EC50 is 380 nM.
Consider `CC(C)c1nn(C2CCCOC2)c2nc(C(=O)O)cc(-c3ccc(N4CCOCC4)cc3)c12` (stereo not shown) [compound 68, 4-[4-(morpholin-4-yl)phenyl]-1-(oxan-3-yl)-3-(propan-2-yl)-1H-pyrazolo[3,4-b]pyridine-6-carboxylic acid], for which the “% Activation” value in assay [1] (setting [4]) is 106.65%; in assay [2], 274.9%. The EC50 in assay [1] (setting [5]) came to 1740 nM; in assay [2], 1390 nM.
